Key:
[1] = target: 5-hydroxytryptamine receptor 1B (Rattus norvegicus, UniProt P28564); type: cell membranes, Wistar, Cerebral cortex, Membrane; further: in other assays of this panel Not Active means under 50% inhibition at 10 µM
[2] = target: T1, 3-hydroxy-3-methylglutaryl-coenzyme A reductase (Homo sapiens, UniProt P04035); set-up: species or system Escherichia coli;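 further: enzyme inhibition assay of HMG-CoA reductase using radiolabeled [14C]HMG-CoA as substrate; in other assays of this panel Not Active means under 50% inhibition at 10 µM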
T1 sequence (P04035 whole entry): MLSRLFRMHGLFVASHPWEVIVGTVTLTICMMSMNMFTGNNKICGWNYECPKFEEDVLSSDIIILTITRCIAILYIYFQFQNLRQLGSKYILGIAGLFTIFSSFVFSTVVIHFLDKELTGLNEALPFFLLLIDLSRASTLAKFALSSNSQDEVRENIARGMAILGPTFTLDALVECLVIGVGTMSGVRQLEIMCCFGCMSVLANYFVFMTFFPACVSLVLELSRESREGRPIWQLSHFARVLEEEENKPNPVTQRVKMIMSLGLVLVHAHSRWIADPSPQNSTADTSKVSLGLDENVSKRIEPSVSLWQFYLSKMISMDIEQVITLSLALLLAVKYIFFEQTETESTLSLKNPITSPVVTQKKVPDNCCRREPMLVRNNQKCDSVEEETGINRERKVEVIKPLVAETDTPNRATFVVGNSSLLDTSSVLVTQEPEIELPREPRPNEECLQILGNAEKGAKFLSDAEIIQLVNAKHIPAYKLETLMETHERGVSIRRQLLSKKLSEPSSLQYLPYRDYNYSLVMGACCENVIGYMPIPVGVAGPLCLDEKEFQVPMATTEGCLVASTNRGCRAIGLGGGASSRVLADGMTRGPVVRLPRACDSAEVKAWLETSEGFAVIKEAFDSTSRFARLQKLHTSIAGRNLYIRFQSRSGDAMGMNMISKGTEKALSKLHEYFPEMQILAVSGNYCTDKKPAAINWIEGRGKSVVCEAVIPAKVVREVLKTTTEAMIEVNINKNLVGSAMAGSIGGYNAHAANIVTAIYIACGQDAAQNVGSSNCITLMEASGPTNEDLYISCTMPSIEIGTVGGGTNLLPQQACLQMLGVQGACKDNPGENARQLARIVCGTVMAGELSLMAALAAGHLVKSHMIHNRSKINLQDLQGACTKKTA

[3] = target: Receptor tyrosine-protein kinase erbB-2 (Homo sapiens, UniProt P04626); experiment: biochemical; type: cell-based, Insect cells; details: insect cells;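 further: inhibition of HER2 kinase enzyme activity, measured with Poly(Glu:Tyr) as the phosphorylation substrate; in other assays of this panel Not Active means under 50% inhibition at 10 µM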
[4] = DRUGMATRIX: Serotonin (5-Hydroxytryptamine) 5-HT3 radioligand binding (ligand: [3H] GR-65630); type: cell membranes, Membrane; details: hek293; Not Active = under 50% inhibition at 10 µM
[5] = target: T2, C-X-C chemokine receptor type 1 (Homo sapiens, UniProt P25024); further: in other assays of this panel Not Active means under 50% inhibition at 10 µM
T2 sequence (P25024 whole entry): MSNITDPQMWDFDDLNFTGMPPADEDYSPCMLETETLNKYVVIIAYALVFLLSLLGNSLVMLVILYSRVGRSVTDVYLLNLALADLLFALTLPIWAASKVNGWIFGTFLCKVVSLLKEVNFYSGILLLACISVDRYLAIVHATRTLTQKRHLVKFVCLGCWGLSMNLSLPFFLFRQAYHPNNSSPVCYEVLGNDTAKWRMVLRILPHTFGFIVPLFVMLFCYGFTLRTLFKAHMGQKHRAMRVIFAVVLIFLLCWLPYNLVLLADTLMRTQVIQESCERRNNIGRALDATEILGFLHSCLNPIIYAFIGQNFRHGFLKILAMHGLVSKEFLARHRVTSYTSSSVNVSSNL

[6] = DRUGMATRIX: Atrial Natriuretic Factor (ANF) radioligand binding (ligand: [125I] ANF (rat)); type: cell membranes, Cavia porcellus, Dunkin-Hartley, Adrenal gland, Membrane; details: Not Active = under 50% inhibition at 10 µM
[7] = target: T3, Alpha-2C adrenergic receptor (Homo sapiens, UniProt P18825); experiment: DRUGMATRIX: Adrenergic Alpha-2C radioligand binding (ligand: [3H] MK-912); type: cell membranes, Sf9, Membrane; details: sf9
T3 sequence (P18825 whole entry): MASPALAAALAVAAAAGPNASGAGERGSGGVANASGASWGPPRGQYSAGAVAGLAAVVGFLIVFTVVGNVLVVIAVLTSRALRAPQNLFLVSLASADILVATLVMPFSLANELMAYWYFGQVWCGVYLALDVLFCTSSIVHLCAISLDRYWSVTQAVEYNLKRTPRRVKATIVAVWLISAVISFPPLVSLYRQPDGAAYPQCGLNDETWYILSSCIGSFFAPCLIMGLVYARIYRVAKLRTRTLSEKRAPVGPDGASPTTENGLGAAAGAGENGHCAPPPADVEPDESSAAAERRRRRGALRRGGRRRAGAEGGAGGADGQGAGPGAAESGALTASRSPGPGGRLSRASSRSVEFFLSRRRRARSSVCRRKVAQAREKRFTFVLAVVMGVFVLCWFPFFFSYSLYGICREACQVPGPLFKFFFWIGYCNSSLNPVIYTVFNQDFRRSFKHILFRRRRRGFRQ

Cathepsin G = target: T4, Cathepsin G (Homo sapiens, UniProt P08311); type: tissue-based; details: neutrophil
T4 sequence (P08311 whole entry): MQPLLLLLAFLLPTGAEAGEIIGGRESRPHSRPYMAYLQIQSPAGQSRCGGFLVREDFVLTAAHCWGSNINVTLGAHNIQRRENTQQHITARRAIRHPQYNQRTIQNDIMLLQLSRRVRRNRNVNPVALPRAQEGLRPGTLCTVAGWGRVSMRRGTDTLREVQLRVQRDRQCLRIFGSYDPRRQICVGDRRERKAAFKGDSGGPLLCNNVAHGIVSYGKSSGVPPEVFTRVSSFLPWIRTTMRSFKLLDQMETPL

[8] = target: T5, Vasoactive intestinal polypeptide receptor 1 (Homo sapiens, UniProt P32241); type: cell membranes, Membrane; details: ht-29; further: in other assays of this panel Not Active means under 50% inhibition at 10 µM
T5 sequence (P32241 whole entry): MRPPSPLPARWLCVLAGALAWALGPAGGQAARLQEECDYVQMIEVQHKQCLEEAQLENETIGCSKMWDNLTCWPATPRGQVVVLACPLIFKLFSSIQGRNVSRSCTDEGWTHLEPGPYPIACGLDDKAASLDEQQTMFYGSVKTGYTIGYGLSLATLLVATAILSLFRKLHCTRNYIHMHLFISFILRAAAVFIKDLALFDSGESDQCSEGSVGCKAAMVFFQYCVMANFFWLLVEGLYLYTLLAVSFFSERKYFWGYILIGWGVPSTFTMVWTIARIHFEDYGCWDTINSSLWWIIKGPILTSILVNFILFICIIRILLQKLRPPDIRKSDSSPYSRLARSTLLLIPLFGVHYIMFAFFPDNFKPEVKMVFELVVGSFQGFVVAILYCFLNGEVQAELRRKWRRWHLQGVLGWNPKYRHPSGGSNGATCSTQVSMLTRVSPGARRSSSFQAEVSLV

5-hydroxytryptamine receptor 1B, sequence (P28564 whole entry): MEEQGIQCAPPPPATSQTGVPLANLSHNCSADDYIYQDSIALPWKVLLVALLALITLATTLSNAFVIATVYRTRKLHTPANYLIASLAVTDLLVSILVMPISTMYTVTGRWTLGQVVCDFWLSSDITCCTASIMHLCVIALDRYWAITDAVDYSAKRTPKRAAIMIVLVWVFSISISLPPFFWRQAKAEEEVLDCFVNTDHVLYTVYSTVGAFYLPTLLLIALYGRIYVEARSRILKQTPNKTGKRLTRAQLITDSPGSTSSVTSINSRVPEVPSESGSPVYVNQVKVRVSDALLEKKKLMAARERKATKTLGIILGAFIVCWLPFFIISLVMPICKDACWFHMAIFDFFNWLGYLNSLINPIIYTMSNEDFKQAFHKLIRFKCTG

Compound	IC50 [1]	IC50 [2]	IC50 [3]	IC50 [4]	Ki [4]	IC50 [5]	IC50 [6]	Ki [6]	IC50 [7]	IC50 (Cathepsin G)	IC50 [8]	Ki [1]	Ki [2]	Ki [3]	Ki [5]	IC50 ([7]; read-out: IC50) [nM]	Ki ([7]; read-out: Ki) [nM]	Ki (Cathepsin G)	Ki [8]
COc1cc(C(=O)NC2CCCNC2)cc(OC)c1OC (configuration not stated) [TROXIPIDE]	Not Active	Not Active	Not Active	Not Active	Not Active	Not Active	Not Active	Not Active	Not Active	Not Active	Not Active								
CC(C)[C@H](N)C(=O)OCCOCn1cnc2c(=O)nc(N)[nH]c21 [VALACYCLOVIR]	Not Active	Not Active	Not Active	Not Active	Not Active	Not Active	Not Active	Not Active	Not Active	Not Active	Not Active								
CN[C@H](CC(C)C)C(=O)N[C@H]1C(=O)N[C@@H](CC(N)=O)C(=O)N[C@H]2C(=O)N[C@H]3C(=O)N[C@H](C(=O)N[C@H](C(=O)O)c4cc(O)cc(O)c4-c4cc3ccc4O)[C@H](O)c3ccc(c(Cl)c3)Oc3cc2cc(c3O[C@@H]2O[C@H](CO)[C@@H](O)[C@H](O)[C@H]2O[C@H]2C[C@](C)(N)[C@H](O)[C@H](C)O2)Oc2ccc(cc2Cl)[C@H]1O [VANCOMYCIN]	Not Active	Not Active	Not Active	Not Active	Not Active	Not Active	Not Active	Not Active	Not Active	Not Active	Not Active								
COc1ccc(C(CN(C)C)C2(O)CCCCC2)cc1 (configuration not stated) [VENLAFAXINE]	Not Active	Not Active	Not Active	Not Active	Not Active	Not Active	Not Active	Not Active	Not Active	Not Active	Not Active								
IVERMECTIN	Not Active	Not Active	Not Active	Not Active	Not Active	Not Active	Not Active	Not Active		Not Active	Not Active	Not Active	Not Active	Not Active	Not Active	3920	570	Not Active	Not Active

Source: ChEMBL document CHEMBL1909046, “DrugMatrix in vitro pharmacology data”
